Assays:
[1] = target: T1, calcineurin (CN) catalytic subunit A (CNA), CN-R254K (Homo sapiens, UniProt Q08209, R254K); experiment: microscale thermophoresis (MST); assay type: binding
T1 construct: gene PPP3CA; human CNA/CNB (CNA: M1-N370, CNB: 16-170); with calcineurin B (CNB)

[2] = target: T2, calcineurin (CN) catalytic subunit A (CNA); serine/threonine-protein phosphatase 2B catalytic subunit alpha isoform (Homo sapiens, UniProt Q08209); experiment: microscale thermophoresis (MST); supported by HDX-MS, CETSA and in vitro activation of CN; assay type: binding
T2 construct: gene PPP3CA; human CNA/CNB (CNA: M1-N370, CNB: 16-170), His-tagged, E. coli; with calcineurin B (CNB)

## C=C(C)[C@@H]1[C@H]2OC(=O)[C@@H]1[C@]1(O)[C@H]3O[C@H]3[C@]3(CO3)[C@]1(C)[C@@H]2O [tutin]
[1]
  Kd: 7.64 ± 4.48 µM
[2]
  Kd: 0.28 ± 0.27 µM
